Patent publication US6762207B1, “(E)-styryl sulfone anticancer agents” (priority 1999, dated 2004)

How the values were obtained:
Assay type in all cases: cell-based
Design in all cases: dose or concentration left out as unconfirmed
Details in all cases: 96 hours
[1] = test system: prostate tumor cell line DU-145; assay: Trypan blue exclusion viability assay, DU145
Experimental: (§1) MCF-7 is estrogen-responsive, while BT-20 is an estrogen-unresponsive cell line. NIH/3T3 and HFL are normal murine and human fibroblasts, respectively. MCF-7, BT-20, DLD-1 and H157 were grown in Dulbecco's modified Eagle's medium (DMEM) containing 10% fetal bovine serum supplemented with penicillin and streptomycin. DU145 was cultured in RPMI with 10% fetal bovine serum containing penicillin and streptomycin. […] All cell cultures were maintained at 37° C. in a humidified atmosphere of 5% CO2. Cells were treated with test compound at 2.5 mM concentration and cell viability was determined after 96 hours by the Trypan blue exclusion method.

[2] = test system: breast tumor cell line BT-20; assay: Trypan blue exclusion viability assay, BT20
Experimental: as §1

[3] = test system: colorectal carcinoma cell line DLD-1; assay: Trypan blue exclusion viability assay, DLD-1
Experimental: as §1

[4] = test system: non-small cell lung carcinoma cell line H157; assay: Trypan blue exclusion viability assay, H157
Experimental: as §1

Row | Structure (SMILES) | Cell death, DU145 [1] | Cell death, BT20 [2] | Cell death, DLD-1 [3] | Cell death, H157 [4]
1 | O=S(=O)(/C=C/c1ccc(Br)cc1)Cc1ccc(C(F)(F)F)cc1 [Example 3, (E)-4-Bromostyryl-4-trifluoromethylbenzylsulfone] | + (5-10%: = +) | ++ (10-15% = ++) | + (5-10%: = +) | 
2 | O=S(=O)(/C=C/c1ccc(Cl)cc1)Cc1ccc(Cl)c(Cl)c1 [Example 7, (E)-4-Chlorostyryl-3,4-dichlorobenzylsulfone] | − (0% = −) | ++ (10-15% = ++) |  | 
3 | O=S(=O)(/C=C/c1ccc(Br)cc1)Cc1ccc(Cl)c(Cl)c1 [Example 8, (E)-4-Bromostyryl-3,4-dichlorobenzylsulfone] | − (0% = −) | − (0% = −) | − (0% = −) | 
4 | O=S(=O)(/C=C/c1ccc(F)cc1)Cc1ccc(I)cc1 [Example 19, (E)-4-Fluorostyryl-4-iodobenzylsulfone] | +++++ (Above 80% = +++++) | +++++ (Above 80% = +++++) | +++++ (Above 80% = +++++) | +++++ (Above 80% = +++++)
5 | O=S(=O)(/C=C/c1ccc(I)cc1)Cc1ccc(Cl)cc1 [Example 21, (E)-4-Iodostyryl-4-chlorobenzylsulfone] | ++ (10-15% = ++) | ++ (10-15% = ++) | ++ (10-15% = ++) | ++ (10-15% = ++)
6 | O=S(=O)(/C=C/c1ccc(I)cc1)Cc1ccc(Br)cc1 [Example 22, (E)-4-Iodostyryl-4-bromobenzylsulfone] | ++ (10-15% = ++) | ++ (10-15% = ++) | ++ (10-15% = ++) | ++ (10-15% = ++)
7 | O=S(=O)(/C=C/c1ccc(Cl)cc1)Cc1ccc(I)cc1 [Example 23, (E)-4-Chlorostyryl-4-iodobenzylsulfone] | ++ (10-15% = ++) | +++ (40-50% = +++) | ++ (10-15% = ++) | ++ (10-15% = ++)
8 | O=[N+]([O-])c1ccccc1/C=C/S(=O)(=O)Cc1ccc(I)cc1 [Example 25, (E)-2-Nitrostyryl-4-iodobenzylsulfone] | ++ (10-15% = ++) | ++ (10-15% = ++) | ++ (10-15% = ++) | ++ (10-15% = ++)
9 | O=[N+]([O-])c1ccccc1/C=C/S(=O)(=O)Cc1ccc(F)cc1 [Example 29, (E)-2-nitrostyryl-4-fluorobenzylsulfone] | + (5-10%: = +) | + (5-10%: = +) | + (5-10%: = +) | + (5-10%: = +)
10 | O=[N+]([O-])c1cccc(/C=C/S(=O)(=O)Cc2ccc(F)cc2)c1 [Example 30, (E)-3-nitrostyryl-4-fluorobenzylsulfone] | + (5-10%: = +) | + (5-10%: = +) | + (5-10%: = +) | + (5-10%: = +)
11 | O=[N+]([O-])c1ccc(/C=C/S(=O)(=O)Cc2ccc(F)cc2)cc1 [Example 31, (E)-4-nitrostyryl-4-fluorobenzylsulfone] | ++++ (50-60% = ++++) | ++++ (50-60% = ++++) | ++++ (50-60% = ++++) | ++++ (50-60% = ++++)
12 | O=S(=O)(/C=C/c1ccccc1C(F)(F)F)Cc1ccc(F)cc1 [Example 32, (E)-2-trifluoromethylstyryl-4-fluorobenzylsulfone] | + (5-10%: = +) | + (5-10%: = +) | + (5-10%: = +) | + (5-10%: = +)
13 | O=S(=O)(/C=C/c1cccc(C(F)(F)F)c1)Cc1ccc(F)cc1 [Example 33, (E)-3-trifluoromethylstyryl-4-fluorobenzylsulfone] | + (5-10%: = +) | + (5-10%: = +) | + (5-10%: = +) | + (5-10%: = +)
14 | O=S(=O)(/C=C/c1ccc(C(F)(F)F)cc1)Cc1ccc(F)cc1 [Example 34, (E)4-trifluoromethylstyryl-4-fluorobenzylsulfone] | + (5-10%: = +) | + (5-10%: = +) | + (5-10%: = +) | + (5-10%: = +)
15 | O=S(=O)(/C=C/c1ccc(F)cc1C(F)(F)F)Cc1ccc(F)cc1 [Example 35, (E)-2-trifluoromethy-4-fluorostyryl-4-fluorobenzylsulfone] | + (5-10%: = +) | + (5-10%: = +) | + (5-10%: = +) | + (5-10%: = +)
16 | O=[N+]([O-])c1ccccc1/C=C/S(=O)(=O)Cc1ccc(Cl)cc1 [Example 36, (E)-2-nitrostyryl-4-chlorobenzylsulfone] | + (5-10%: = +) | + (5-10%: = +) | + (5-10%: = +) | + (5-10%: = +)
17 | O=[N+]([O-])c1cccc(/C=C/S(=O)(=O)Cc2ccc(Cl)cc2)c1 [Example 37, (E)-3-nitrostyryl-4-chlorobenzylsulfone] | + (5-10%: = +) | + (5-10%: = +) | + (5-10%: = +) | + (5-10%: = +)
18 | O=[N+]([O-])c1ccc(/C=C/S(=O)(=O)Cc2ccc(Cl)cc2)cc1 [Example 38, (E)-4-nitrostyryl-4-chlorobenzylsulfone] | ++++ (50-60% = ++++) | ++++ (50-60% = ++++) | ++++ (50-60% = ++++) | ++++ (50-60% = ++++)
19 | O=S(=O)(/C=C/c1ccccc1C(F)(F)F)Cc1ccc(Cl)cc1 [Example 39, (E)-2-trifluoromethylstyryl-4-chlorobenzylsulfone] | + (5-10%: = +) | + (5-10%: = +) | + (5-10%: = +) | + (5-10%: = +)
20 | O=S(=O)(/C=C/c1cccc(C(F)(F)F)c1)Cc1ccc(Cl)cc1 [Example 40, (E)-3-trifluoromethylstyryl-4-chlorobenzylsulfone] | + (5-10%: = +) | + (5-10%: = +) | + (5-10%: = +) | + (5-10%: = +)
21 | O=S(=O)(/C=C/c1ccc(C(F)(F)F)cc1)Cc1ccc(Cl)cc1 [Example 41, (E)-4-trifluoromethylstyryl-4-chlorobenzylsulfone] | + (5-10%: = +) | + (5-10%: = +) | + (5-10%: = +) | + (5-10%: = +)
22 | O=S(=O)(/C=C/c1ccc(F)cc1C(F)(F)F)Cc1ccc(Cl)cc1 [Example 42, (E)-2-trifluoromethyl-4-fluorostyryl-4-chlorobenzylsulfone] | + (5-10%: = +) | + (5-10%: = +) | + (5-10%: = +) | + (5-10%: = +)
23 | Cc1cc(/C=C/S(=O)(=O)Cc2ccc(Cl)cc2)ccc1F [Example 43, (E)-3-methyl-4-fluorostyryl-4-chlorobenzylsulfone] | + (5-10%: = +) | + (5-10%: = +) | + (5-10%: = +) | + (5-10%: = +)
24 | O=[N+]([O-])c1ccccc1/C=C/S(=O)(=O)Cc1ccc(Cl)cc1Cl [Example 44, (E)-2-nitrostyryl-2,4-dichlorobenzylsulfone] | + (5-10%: = +) | + (5-10%: = +) | + (5-10%: = +) | + (5-10%: = +)
25 | O=S(=O)(/C=C/c1ccc(F)cc1C(F)(F)F)Cc1ccc(Cl)cc1Cl [Example 45, (E)-2-trifluoromethyl-4-fluorostyryl-2,4-dichlorobenzylsulfone] | +++ (40-50% = +++) | +++ (40-50% = +++) | +++ (40-50% = +++) | +++ (40-50% = +++)
26 | O=[N+]([O-])c1ccccc1/C=C/S(=O)(=O)Cc1ccc(Br)cc1 [Example 46, (E)-2-nitrostyryl-4-bromobenzylsulfone] | + (5-10%: = +) | + (5-10%: = +) | + (5-10%: = +) | + (5-10%: = +)
27 | O=[N+]([O-])c1cccc(/C=C/S(=O)(=O)Cc2ccc(Br)cc2)c1 [Example 47, (E)-3-nitrostyryl-4-bromobenzylsulfone] | + (5-10%: = +) | + (5-10%: = +) | + (5-10%: = +) | + (5-10%: = +)
28 | O=[N+]([O-])c1ccc(/C=C/S(=O)(=O)Cc2ccc(Br)cc2)cc1 [Example 48, (E)-4-nitrostyryl-4-bromobenzylsulfone] | ++++ (50-60% = ++++) | ++++ (50-60% = ++++) | ++++ (50-60% = ++++) | ++++ (50-60% = ++++)
29 | O=S(=O)(/C=C/c1ccccc1C(F)(F)F)Cc1ccc(Br)cc1 [Example 49, (E)-2-trifluoromethylstyryl-4-bromobenzylsulfone] | + (5-10%: = +) | + (5-10%: = +) | + (5-10%: = +) | + (5-10%: = +)
30 | N#Cc1ccc(CS(=O)(=O)/C=C/c2ccccc2[N+](=O)[O-])cc1 [Example 52, (E)-2-nitrostyryl-4-cyanobenzylsulfone] | + (5-10%: = +) | + (5-10%: = +) | + (5-10%: = +) | + (5-10%: = +)
